Test results: patent US8637562B2, “Methods for detecting sulfhydryl-containing compounds in a biological test sample” (Theravance, Inc., priority 2008, dated 2014)

How the values were obtained:
Format in all cases: in vitro ADME
[1] = Hydrolysis of the methyl acrylate derivative in rat plasma (monomer detection method, LC-MS/MS); conditions: rat plasma containing 1% (v/v) methyl acrylate
Description: Rat blood (0.3 mL) was placed into EDTA microtainer tubes containing methyl acrylate (3 μL) (1:100 volume ratio of methyl acrylate:blood). Blood and methyl acrylate were mixed by gentle rolling and tapping of the tube. After 30 minutes of reaction at room temperature, the blood samples were placed on ice until centrifugation. The blood was processed to obtain plasma by centrifugation for 4 minutes at approximately 12,000 rpm. 0.15 mL of plasma was then transferred to cluster tubes on dry ice.
[drawing 26] into a specified volume of blank rat plasma containing 1% (v/v) of methyl acrylate. Compound III-a is the methyl acrylate derivative of compound I-a. In general, the calibration curve range was 0.1 to 1000 ng/mL of compound III-a in rat plasma. […]
Multiple reaction monitoring (MRM) is the standard technique for quantitative LC-MS/MS experiments. Four specific MRM transitions for compound I-a, compound III-a, compound IV-a, and the internal standard were simultaneously monitored by LC-MS/MS. […]
(§1) [drawing 27] is the hydrolyzed form of compound III-a. […] The relevant derivative concentrations of in vivo samples were determined from the calibration curve. The monomer concentration (in ng/mL units) was calculated from the concentration of the relevant derivative multiplied by the correction factor of the ratio of the molecular weight of the monomer/molecular weight of the derivative.

[2] = Hydrolysis of the methyl acrylate derivative in dog plasma (monomer detection method, LC-MS/MS)
Description: (§2) Subsequent studies were conducted using dog and monkey plasma. Accordingly, similar calibration standards were prepared in dog and monkey plasma.
(§3) Plasma samples were extracted by protein precipitation. In general, 200 μL of MeCN containing a specified concentration of the internal standard was added into a 50 μL aliquot of each plasma calibration standard, QC, and in vivo plasma sample. The plasma samples were then vortexed and centrifuged. 100 μL of extract was then taken from each plasma sample and reconstituted into 200 μL of 5% MeCN/water containing 0.2% formic acid.
(§4) Multiple reaction monitoring (MRM) is the standard technique for quantitative LC-MS/MS experiments. Four specific MRM transitions for compound I-a, compound III-a, compound IV-a, and the internal standard were simultaneously monitored by LC-MS/MS. 4′-(5-{[(S)-2-(2-Carboxyethylsulfanyl)-4-methylpentanoyl amino]methyl}-2-ethoxy-4-ethylimidazol-1-ylmethyl)-3′-fluorobiphenyl-2-carboxylic acid (compound IV-a):
as §1

[3] = Hydrolysis of the methyl acrylate derivative in monkey plasma (monomer detection method, LC-MS/MS)
Description: as §2, §3, §4, §1

Structure (SMILES): CCOc1nc(CC)c(CNC(=O)[C@H](CC(C)C)SCCC(=O)OC)n1Cc1ccc(-c2ccccc2C(=O)O)cc1F [Compound III-a, 4′-(2-ethoxy-4-ethyl-5-{[(S)-2-(2-methoxycarbonylethylsulfanyl)-4-methylpentanoylamino]methyl}imidazol-1-ylmethyl)-3′-fluorobiphenyl-2-carboxylic acid]
- hydrolysis of compound III-a to compound IV-a in plasma [1]: completely hydrolyzes to compound IV-a
- hydrolysis of compound III-a to compound IV-a in plasma [2]: not
- hydrolysis of compound III-a to compound IV-a in plasma [3]: not
